Test results reported in the supplement of paper PMC10307832.

Legend:
Assay in all cases: relative viability (nuclei count vs DMSO), 5 days (fraction); higher = more cells survive
A-427 = tested on: A-427
Outline: (§1)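 Relative viability divides the nuclei count in treated wells by that in vehicle wells. Lung cancer cell lines were seeded in 1536-well plates, dosed by pin tool the next day, and fixed and stained after 5 days in one step with final 0.05% Triton X-100, 1% formaldehyde and 1 ug/ml Hoechst. Dosing was a single drug or a fixed anchor-drug dose plus five library-drug doses (not always all listed) in √10 steps, and values are medians of duplicate plates imaged at 4×.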

COR-L 105 = tested on: COR-L 105
Outline: as §1

EKVX = tested on: EKVX
Outline: as §1

EMC-BAC-2 = tested on: EMC-BAC-2
Outline: as §1

H3255 = tested on: H3255
Outline: as §1

HCC-366 = tested on: HCC-366
Outline: as §1

LK-2 = tested on: LK-2
Outline: as §1

LOU-NH91 = tested on: LOU-NH91
Outline: as §1

NCI-H1563 = tested on: NCI-H1563
Outline: as §1

NCI-H1666 = tested on: NCI-H1666
Outline: as §1

NCI-H1734 = tested on: NCI-H1734
Outline: as §1

NCI-H1755 = tested on: NCI-H1755
Outline: as §1

NCI-H1792 = tested on: NCI-H1792
Outline: as §1

NCI-H1944 = tested on: NCI-H1944
Outline: as §1

NCI-H1975 = tested on: NCI-H1975
Outline: as §1

NCI-H2170 = tested on: NCI-H2170
Outline: as §1

NCI-H23 = tested on: NCI-H23
Outline: as §1

NCI-H520 = tested on: NCI-H520
Outline: as §1

NCI-H596 = tested on: NCI-H596
Outline: as §1

PC-3 [JPC-3] = tested on: PC-3 [JPC-3]
Outline: as §1

SK-MES-1 = tested on: SK-MES-1
Outline: as §1

## Clc1ccc(Nc2nnc(Cc3ccncc3)c3ccccc23)cc1 [Vatalanib] + CS(=O)(=O)CCNCc1ccc(-c2ccc3ncnc(Nc4ccc(OCc5cccc(F)c5)c(Cl)c4)c3c2)o1 [Lapatinib] (partner 2 µM)
A-427; first compound 0.04 µM
  relative viability: 1.01
A-427; first compound 0.1265 µM
  relative viability: 0.938
A-427; first compound 0.4 µM
  relative viability: 0.769
A-427; first compound 1.265 µM
  relative viability: 0.972
A-427; first compound 4 µM
  relative viability: 1.11
COR-L 105; first compound 0.04 µM
  relative viability: 0.375
COR-L 105; first compound 0.1265 µM
  relative viability: 0.301
COR-L 105; first compound 0.4 µM
  relative viability: 0.404
COR-L 105; first compound 1.265 µM
  relative viability: 0.358
COR-L 105; first compound 4 µM
  relative viability: 0.353
EKVX; first compound 0.04 µM
  relative viability: 0.195
EKVX; first compound 0.1265 µM
  relative viability: 0.238
EKVX; first compound 0.4 µM
  relative viability: 0.547
EKVX; first compound 1.265 µM
  relative viability: 0.186
EKVX; first compound 4 µM
  relative viability: 0.216
EMC-BAC-2; first compound 0.04 µM
  relative viability: 0.905
EMC-BAC-2; first compound 0.1265 µM
  relative viability: 0.884
EMC-BAC-2; first compound 0.4 µM
  relative viability: 0.919
EMC-BAC-2; first compound 1.265 µM
  relative viability: 0.832
EMC-BAC-2; first compound 4 µM
  relative viability: 0.885
H3255; first compound 0.04 µM
  relative viability: 0.261
H3255; first compound 0.1265 µM
  relative viability: 0.226
H3255; first compound 0.4 µM
  relative viability: 0.287
H3255; first compound 1.265 µM
  relative viability: 0.247
H3255; first compound 4 µM
  relative viability: 0.263
HCC-366; first compound 0.04 µM
  relative viability: 1.02
HCC-366; first compound 0.1265 µM
  relative viability: 0.93
HCC-366; first compound 0.4 µM
  relative viability: 1.06
HCC-366; first compound 1.265 µM
  relative viability: 0.937
HCC-366; first compound 4 µM
  relative viability: 1.03
LK-2; first compound 0.04 µM
  relative viability: 0.88
LK-2; first compound 0.1265 µM
  relative viability: 0.831
LK-2; first compound 0.4 µM
  relative viability: 0.698
LK-2; first compound 1.265 µM
  relative viability: 1.03
LK-2; first compound 4 µM
  relative viability: 0.93
LOU-NH91; first compound 0.04 µM
  relative viability: 0.763
LOU-NH91; first compound 0.1265 µM
  relative viability: 0.741
LOU-NH91; first compound 0.4 µM
  relative viability: 0.802
LOU-NH91; first compound 1.265 µM
  relative viability: 0.689
LOU-NH91; first compound 4 µM
  relative viability: 0.664
NCI-H1563; first compound 0.04 µM
  relative viability: 0.994
NCI-H1563; first compound 0.1265 µM
  relative viability: 0.91
NCI-H1563; first compound 0.4 µM
  relative viability: 1.12
NCI-H1563; first compound 1.265 µM
  relative viability: 0.945
NCI-H1563; first compound 4 µM
  relative viability: 0.777
NCI-H1666; first compound 0.04 µM
  relative viability: 0.728
NCI-H1666; first compound 0.1265 µM
  relative viability: 0.749
NCI-H1666; first compound 0.4 µM
  relative viability: 0.863
NCI-H1666; first compound 1.265 µM
  relative viability: 0.529
NCI-H1666; first compound 4 µM
  relative viability: 0.545
NCI-H1734; first compound 0.04 µM
  relative viability: 0.919
NCI-H1734; first compound 0.1265 µM
  relative viability: 1.02
NCI-H1734; first compound 0.4 µM
  relative viability: 1.11
NCI-H1734; first compound 1.265 µM
  relative viability: 1.06
NCI-H1734; first compound 4 µM
  relative viability: 1.09
NCI-H1755; first compound 0.04 µM
  relative viability: 1.02
NCI-H1755; first compound 0.1265 µM
  relative viability: 1.02
NCI-H1755; first compound 0.4 µM
  relative viability: 1.09
NCI-H1755; first compound 1.265 µM
  relative viability: 0.946
NCI-H1755; first compound 4 µM
  relative viability: 0.951
NCI-H1792; first compound 0.04 µM
  relative viability: 0.892
NCI-H1792; first compound 0.1265 µM
  relative viability: 0.852
NCI-H1792; first compound 0.4 µM
  relative viability: 0.966
NCI-H1792; first compound 1.265 µM
  relative viability: 0.87
NCI-H1792; first compound 4 µM
  relative viability: 0.877
NCI-H1944; first compound 0.04 µM
  relative viability: 0.904
NCI-H1944; first compound 0.1265 µM
  relative viability: 0.635
NCI-H1944; first compound 0.4 µM
  relative viability: 0.909
NCI-H1944; first compound 1.265 µM
  relative viability: 0.804
NCI-H1944; first compound 4 µM
  relative viability: 0.784
NCI-H1975; first compound 0.04 µM
  relative viability: 0.856
NCI-H1975; first compound 0.1265 µM
  relative viability: 0.827
NCI-H1975; first compound 0.4 µM
  relative viability: 0.942
NCI-H1975; first compound 1.265 µM
  relative viability: 0.808
NCI-H1975; first compound 4 µM
  relative viability: 0.769
NCI-H2170; first compound 0.04 µM
  relative viability: 0.261
NCI-H2170; first compound 0.1265 µM
  relative viability: 0.268
NCI-H2170; first compound 0.4 µM
  relative viability: 0.286
NCI-H2170; first compound 1.265 µM
  relative viability: 0.261
NCI-H2170; first compound 4 µM
  relative viability: 0.264
NCI-H23; first compound 0.04 µM
  relative viability: 0.963
NCI-H23; first compound 0.1265 µM
  relative viability: 1.15
NCI-H23; first compound 0.4 µM
  relative viability: 1.3
NCI-H23; first compound 1.265 µM
  relative viability: 0.993
NCI-H23; first compound 4 µM
  relative viability: 1.08
NCI-H520; first compound 0.04 µM
  relative viability: 0.94
NCI-H520; first compound 0.1265 µM
  relative viability: 0.711
NCI-H520; first compound 0.4 µM
  relative viability: 0.891
NCI-H520; first compound 1.265 µM
  relative viability: 0.741
NCI-H520; first compound 4 µM
  relative viability: 0.82
NCI-H596; first compound 0.04 µM
  relative viability: 1.07
NCI-H596; first compound 0.1265 µM
  relative viability: 1.22
NCI-H596; first compound 0.4 µM
  relative viability: 1.14
NCI-H596; first compound 1.265 µM
  relative viability: 1.03
NCI-H596; first compound 4 µM
  relative viability: 1.16
PC-3 [JPC-3]; first compound 0.04 µM
  relative viability: 0.49
PC-3 [JPC-3]; first compound 0.1265 µM
  relative viability: 0.461
PC-3 [JPC-3]; first compound 0.4 µM
  relative viability: 0.448
PC-3 [JPC-3]; first compound 1.265 µM
  relative viability: 0.43
PC-3 [JPC-3]; first compound 4 µM
  relative viability: 0.442
SK-MES-1; first compound 0.04 µM
  relative viability: 0.516
SK-MES-1; first compound 0.1265 µM
  relative viability: 0.457
SK-MES-1; first compound 0.4 µM
  relative viability: 0.464
SK-MES-1; first compound 1.265 µM
  relative viability: 0.462
SK-MES-1; first compound 4 µM
  relative viability: 0.429
